Assay results as given in patent US12065442B2, “Tropomyosin receptor kinase (TRK) degradation compounds and methods of use” (Cullgen (Shanghai), Inc., priority 2018, dated 2024).
Entries after “also recorded” stand apart in the source; their conditions may differ. Read-outs that look alike come from different tables or passages of the source.

Legend:
TPM3-TRKA fusion protein [1] = target: T1, TPM3-TRKA fusion protein (Homo sapiens, UniProt P04629+P06753+Q96SW2); assay: Immunoblotting of TPM3-TRKA in KM12 subcutaneous xenograft tumors; type: in vivo, Athymic nude mice; set-up: The resulted chimeric proteins always retain the kinase domain of TRK proteins; TPM3 (N-terminal fusion partner, natural gene fusion); from tissue; host or cells: KM12 subcutaneous xenograft tumors in athymic nude mice; conditions: 10, 20, or 50 mg/kg intraperitoneally, single dose, four hours after administration (FIG. 3)
Protocol: In addition to cultured cells, athymic nude mice bearing KM12 subcutaneous xenograft tumors at the right flank were intraperitoneally treated with 10, 20, or 50 mg/kg CPD-053, CPD-027, or CPD-060. Four hours after drug administration, animals were sacrificed for immunoblotting of TPM3-TPKA in homogenized xenograft tumor masses. The label “a” or “b” represents two different samples of the same xenograft tumor.
Athymic nude mice bearing KM12 subcutaneous xenograft tumors at the right flank were intraperitoneally treated with 10, 20, or 50 mg/kg CPD-053, CPD-027, or CPD-060, as indicated in FIG. 3. Four hours after drug administration, animals were sacrificed for immunoblotting of TPM3-TPKA in homogenized xenograft tumor chunks. The label “a” or “b” represents two different chunks of the same xenograft tumor.
Athymic nude mice bearing KM12 subcutaneous xenograft tumors at the right flank were intraperitoneally or orally treated with bivalent compounds at indicated dose. Eight hours after drug administration, animals were sacrificed for immunoblotting of TPM3-TPKA in homogenized xenograft tumor samples.
(§1) Cultured cells were washed with cold PBS once and lysed in cold RIPA buffer supplemented with protease inhibitors and phosphatase inhibitors (Beyotime Biotechnology). The solutions were then incubated at 4° C. for 30 minutes with gentle agitation to fully lyse cells. For tumor tissues, tumors were cut into small pieces, milled with cold RIPA buffer using a mechanical homogenizer and lysed for 1 hour at 4° C. Cell lysates were centrifuged at 13,000 rpm for 10 minutes at 4° C. and pellets were discarded. Total protein concentrations in the lysates were determined by BCA assays (Beyotime Biotechnology). Cell lysates were mixed with Laemmli loading buffer to 1× and heated at 99° C. for 5 min. Proteins were resolved on SDS-PAGE and visualized by chemiluminescence. Images were taken by a ChemiDoc MP Imaging system (Bio-Rad). Protein bands were quantitated using the software provided by Bio-Rad.
(§2) All animal experiments were performed under protocols approved by the Institutional Animal Care and Use Committee (IACUC) of Cullgen. Athymic nude mice (male, 5-weeks old) received 5 million KM12 cells subcutaneously inoculated at the right flank site. Ten days following inoculation, tumors were approximately 500 mm3 in size. Tumor-bearing mice were treated intraperitoneally with vehicle or bivalent compounds at indicated doses. Tumor sizes and body weight of mice were measured every 2 days. In addition, immunoblotting assays were employed to assess the levels of TRKA fusion proteins in xenograft tumors around 500 mm^3 in size following drug administration. At indicated hours after drug administration, selected mice were sacrificed, tumors were resected. Small chunks of tumors were homogenized for immunoblotting of TPM3-TPKA and other proteins as indicated.

TPM3-TRKA fusion protein [2] = target: T1, TPM3-TRKA fusion protein; assay: Immunoblotting of TPM3-TRKA fusion protein in KM12 cells; type: cell-based; set-up: The resulted chimeric proteins always retain the kinase domain of TRK proteins; TPM3 (N-terminal fusion partner, natural gene fusion); endogenous in cells; host or cells: KM12 colon cancer cells; conditions: for time after adding compound at which significant degradation of TPM3-TRKA was detected: 100 nM (FIG. 2); for TPM3-TRKA protein levels / TPM3-TRKA protein levels, time course: 100 nM; for TPM3-TRKA protein levels: 16 hours (FIG. 1A-1C); for TPM3-TRKA protein levels, time course: indicated incubation time (FIG. 2)
Protocol: Specific exemplary bivalent compounds were characterized in KM12 cells. […] Cells were collected, lysed and subject to immunoblotting using an antibody specific to TRK proteins. GAPDH was included as the loading control. DMSO was used as the negative control.
KM12 cells were treated with DMSO or indicated compounds at 100 nM for 16 hours.
KM12 cells were treated with CPD-027, CPD-053, and CPD-060 at 100 nM for indicated incubation time. […]
KM12 or HEL cells were treated with a dose range of compound TR-123 or TR-123-negative. The latter lost binding to cereblon (CRBN) due to a chemical modification.
KM12 or HEL cells were treated with a single dose of compound TR-123 or combination with MG-132, Bortezomib, MLN4924 or Pomalidomide. […]
as §1

[3] = Body weight of xenograft-bearing mice (toxicity); type: in vivo, Athymic nude mice
Protocol: (§3) Athymic nude mice bearing KM12 subcutaneous xenograft tumors at the right flank were intraperitoneally treated with vehicle or 25 mg/kg CPD-060 once per day (qd), twice per day (bid), or once every two days (q2d). Tumor volumes were assessed every two days and expressed as length×width×width/2. Body weights of experimental mice were also measured to assess the toxicity of compounds.
(§4) Athymic nude mice bearing KM12 subcutaneous xenograft tumors at the right flank were treated with vehicle, 10-20 mg/kg TR-181 or TR-198 once per day (qd), or twice per day (bid) via oral gavage. Tumor volumes were assessed every two days and expressed as length×width×width/2. Body weights of experimental mice were also measured to assess the toxicity of compounds.
as §2

[4] = tested on: KM12 subcutaneous xenograft tumors; assay: KM12 subcutaneous xenograft tumor growth study; type: in vivo, Athymic nude mice
Protocol: as §3, §4, §2

KM12 cells = assay: Cell viability assay (CellTiter-Glo) in KM12 cells; type: cell-based; conditions: for IC50: Homo sapiens, 72 h, KM12 cell viability, CellTiter-Glo, 3 days, read-out: IC50
TRK-fusions = conditions: cited from earlier work
KRAS-mutant H358 cells = assay: Cell viability assay (CellTiter-Glo) in H358 cells; type: cell-based; conditions: 1000 nM, 8-point 3-fold serial dilution, 3 days (FIG. 4B)
Protocol: The kinase activity of TRK is known to play important roles in tumors expressing TRK-fusion proteins, as TRK kinase inhibitors compromise cell proliferation, survival, and induce marked clinical responses (Amatu et al., 2016; Drilon et al., 2018; Drilon et al., 2017; Khotskaya et al., 2017). […] Three days after treatment, cell viability was determined using the CellTiter-Glo kit following manufacturer's instructions. Cell viability was normalized to the mean values of 3 replicates of untreated cells. Dose-dependent response was analyzed following the least-squares non-linear regression method using the GraphPad Prism 5.0 software. Each data point in the figure represents the mean values of three technical replicates±standard deviation. […] More specifically, all bivalent compounds that had IC50 values smaller than 1000 nM in KM12 cells induced degradation of TPM3-TRKA (FIG. 1 and Table 2-4). […]
Cells were seeded at a density of 5000 cells per well in 96-well assay plates and treated with test compounds following a 12-point 2-fold serial dilution or a 8-point 3-fold dilution. Three days later, cell viability was determined using the CellTiter-Glo assay kit (Promega) according to the manufacturer's instructions. The dose-response curves were determined and IC50 values were calculated using the GraphPad Prism software following a nonlinear regression (least squares fit) method.

[5] = Mouse pharmacokinetic (PK) studies; type: in vivo; conditions: male, Swiss Albino, mouse, plasma; mice, 2 mg/kg intravenous injection and 20 mg/kg oral gavage, over 12 hours (FIG. 14)
Protocol: To investigate the pharmacokinetics of bi-functional compounds, exemplified by TR-123, a single 20 mg/kg intraperitoneal injection was evaluated. […] Additionally, doses of 2 mg/kg TR-198 via intravenous injection and 20 mg/kg TR-198 via oral gavage were evaluated in mice.
A single 20 mg/kg intraperitoneal injection of compound TR-123 was evaluated. Plasma concentrations of TR-123 reported at each of the 6 time points (30 min, 1 h, 2 h, 4 h, 8 h, and 12 h post compound administration) are the average values from 3 test animals.
A single 2 mg/kg intravenous injection and 20 mg/kg oral gavage of TR-198 were evaluated in mice.
Plasma concentrations of TR-198 reported at each of the 6 time points (5 min, 30 min, 2 h, 4 h, 8 h, and 12 h post compound administration via IV, 30 min, 1 h, 2 h, 4 h, 8 h, and 12 h post compound administration via p.o.) are the average values from 3 test animals.
Standard PK studies were conducted using male Swiss Albino mice by Sai Life Sciences. A single 20 mg/kg intraperitoneal (IP) injection of compound TR-123 was evaluated. Plasma concentrations of TR-123 reported at each of the 6 time points (30 min, 1 h, 2 h, 4 h, 8 h, and 12 h post dosing) are the average values from 3 test animals. Error bars represent+SD.

T1 sequence (P06753+P04629 fused): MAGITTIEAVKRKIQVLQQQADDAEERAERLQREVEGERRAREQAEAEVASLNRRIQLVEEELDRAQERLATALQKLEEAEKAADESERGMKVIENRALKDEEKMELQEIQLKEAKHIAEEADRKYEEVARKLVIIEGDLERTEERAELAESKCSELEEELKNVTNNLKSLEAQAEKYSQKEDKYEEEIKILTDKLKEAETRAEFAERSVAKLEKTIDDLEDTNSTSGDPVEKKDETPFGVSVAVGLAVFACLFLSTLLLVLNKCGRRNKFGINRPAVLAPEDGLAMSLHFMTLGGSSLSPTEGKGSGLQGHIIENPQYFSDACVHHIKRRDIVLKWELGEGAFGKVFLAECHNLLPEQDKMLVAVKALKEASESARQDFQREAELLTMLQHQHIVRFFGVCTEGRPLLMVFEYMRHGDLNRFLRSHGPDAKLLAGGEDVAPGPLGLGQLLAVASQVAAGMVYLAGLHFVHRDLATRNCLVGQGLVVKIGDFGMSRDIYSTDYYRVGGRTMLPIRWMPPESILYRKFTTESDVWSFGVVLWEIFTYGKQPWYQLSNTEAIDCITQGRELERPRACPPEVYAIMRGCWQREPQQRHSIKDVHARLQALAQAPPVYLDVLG
T1 sequence (Q96SW2 whole entry, the tested form may be a part): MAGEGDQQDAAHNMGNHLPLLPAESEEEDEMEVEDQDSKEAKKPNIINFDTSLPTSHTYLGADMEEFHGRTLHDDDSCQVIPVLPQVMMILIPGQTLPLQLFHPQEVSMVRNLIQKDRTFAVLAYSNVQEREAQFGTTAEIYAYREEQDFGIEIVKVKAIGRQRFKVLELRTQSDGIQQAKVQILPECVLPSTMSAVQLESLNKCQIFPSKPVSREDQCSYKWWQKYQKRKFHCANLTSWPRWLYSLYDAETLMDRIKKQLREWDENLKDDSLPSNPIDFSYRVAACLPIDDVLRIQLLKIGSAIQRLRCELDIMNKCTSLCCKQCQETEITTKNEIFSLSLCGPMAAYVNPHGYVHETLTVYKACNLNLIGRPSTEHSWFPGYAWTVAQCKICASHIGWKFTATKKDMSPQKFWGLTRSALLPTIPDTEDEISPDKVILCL
T1 sequence (Q16531 whole entry partner, the tested form may be a part): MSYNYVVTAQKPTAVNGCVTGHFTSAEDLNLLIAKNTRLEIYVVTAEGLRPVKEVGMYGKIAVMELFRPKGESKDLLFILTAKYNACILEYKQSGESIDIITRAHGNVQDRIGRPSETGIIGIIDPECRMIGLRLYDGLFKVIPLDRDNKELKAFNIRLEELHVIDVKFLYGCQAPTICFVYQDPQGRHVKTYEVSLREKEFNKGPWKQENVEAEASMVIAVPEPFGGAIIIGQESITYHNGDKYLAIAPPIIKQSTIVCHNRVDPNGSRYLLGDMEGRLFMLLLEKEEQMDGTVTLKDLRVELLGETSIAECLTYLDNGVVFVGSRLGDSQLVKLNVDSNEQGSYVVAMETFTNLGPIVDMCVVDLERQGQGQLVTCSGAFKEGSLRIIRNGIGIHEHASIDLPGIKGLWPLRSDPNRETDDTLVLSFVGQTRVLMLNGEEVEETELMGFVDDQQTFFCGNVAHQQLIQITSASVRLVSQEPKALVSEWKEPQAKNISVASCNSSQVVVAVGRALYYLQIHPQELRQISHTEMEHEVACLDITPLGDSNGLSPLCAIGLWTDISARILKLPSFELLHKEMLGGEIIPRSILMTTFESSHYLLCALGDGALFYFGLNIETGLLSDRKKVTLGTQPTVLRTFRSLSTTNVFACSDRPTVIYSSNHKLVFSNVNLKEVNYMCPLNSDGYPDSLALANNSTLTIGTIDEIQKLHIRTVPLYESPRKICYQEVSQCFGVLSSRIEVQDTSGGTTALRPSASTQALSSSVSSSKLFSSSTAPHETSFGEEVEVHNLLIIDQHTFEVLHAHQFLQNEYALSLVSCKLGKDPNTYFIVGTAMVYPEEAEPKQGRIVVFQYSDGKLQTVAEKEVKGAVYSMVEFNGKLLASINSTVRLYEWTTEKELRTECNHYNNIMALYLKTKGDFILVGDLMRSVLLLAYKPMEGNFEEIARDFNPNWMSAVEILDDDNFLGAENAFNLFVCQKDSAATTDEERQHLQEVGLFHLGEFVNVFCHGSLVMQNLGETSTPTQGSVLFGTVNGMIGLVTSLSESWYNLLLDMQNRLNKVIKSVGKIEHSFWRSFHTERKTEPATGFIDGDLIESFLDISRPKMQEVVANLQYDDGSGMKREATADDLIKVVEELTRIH

| time after adding compound at which significant degradation of TPM3-TRKA was detected (TPM3-TRKA fusion protein [2]) | TPM3-TRKA protein levels, time course (TPM3-TRKA fusion protein [2]) | Structure (SMILES) | TPM3-TRKA protein levels in KM12 subcutaneous xenograft tumors (TPM3-TRKA fusion protein [1]) | TPM3-TRKA protein levels (TPM3-TRKA fusion protein [2]) | IC50 (KM12 cells; Table 2) | IC50 (KM12 cells; Table 3) | other results |
| --- | --- | --- | --- | --- | --- | --- | --- |
| 15 min | rapidly reduced TPM3-TRKA protein levels | O=C(CN1CCN(c2cccc(-c3cnc4ccc(N5CCC[C@@H]5c5cccc(F)c5)nn34)n2)CC1)NCCNc1cccc2c1C(=O)N(C1CCC(=O)NC1=O)C2=O (stereo partly drawn) [CPD-060, N-(2-((2-(2,6-dioxopiperidin-3-yl)-1,3-dioxoisoindolin-4-yl)amino)ethyl)-2-(4-(6-(6-((R)-2-(3-fluorophenyl)pyrrolidin-1-yl)imidazo[1,2-b]pyridazin-3-yl)pyridin-2-yl)piperazin-1-yl)acetamide] | significantly reducing TPM3-TRKA protein levels | particularly effective in reducing TPM3-TRKA protein levels | 6 nM | – | body weight ([3]; 25 mg/kg intraperitoneally qd, bid or q2d (FIG. 12B)): without inducing substantial weight losses; growth of KM12 subcutaneous xenograft tumors ([4]; 25 mg/kg intraperitoneally qd, bid or q2d (FIG. 12A)): significantly repressed the growth |
| – | – | O=C(Nc1cnn2ccc(N3CCC[C@@H]3c3cc(F)ccc3F)nc12)N1CC[C@H](O)C1 [LOXO-101, larotrectinib] | – | – | – | 25 nM | patients who responded to the therapy (TRK-fusions; phase 2 (Drilon et al., 2018)): 75%; patients remaining progression-free (TRK-fusions; phase 2, at 1 year (Drilon et al., 2018)): 55% |
| 15 min | rapidly reduced TPM3-TRKA protein levels | O=C1CCC(N2C(=O)c3cccc(NCCCC(=O)N4CCN(c5ccc(C(=O)Nc6n[nH]c7ccc(Cc8cc(F)cc(F)c8)cc67)c(NC6CCOCC6)c5)CC4)c3C2=O)C(=O)N1 (stereo not shown) [CPD-053, N-(5-(3,5-Difluorobenzyl)-1H-indazol-3-yl)-4-(4-(4-((2-(2,6-dioxopiperidin-3-yl)-1,3-dioxoisoindolin-4-yl)amino)butanoyl)piperazin-1-yl)-2-((tetrahydro-2H-pyran-4-yl)amino)benzamide] | significantly reducing TPM3-TRKA protein levels | particularly effective in reducing TPM3-TRKA protein levels | 1.5 nM | – | viability of H358 cells (KRAS-mutant H358 cells): did not affect cell viability; viability of KM12 cells (KM12 cells; 500 nM, 12-point 2-fold serial dilution, 3 days (FIG. 4A)): inhibited the viability; also recorded: dose-dependently suppressed viability; viability of KM12 cells (KM12 cells; 1000 nM, 8-point 3-fold serial dilution, 3 days (FIG. 4B)): significantly inhibited the viability |
| – | – | O=C1CCC(N2C(=O)c3ccc(N4CC(CN5CCN(c6cccc(-c7cnc8ccc(N9CCC[C@@H]9c9cccc(F)c9)nn78)n6)CC5)C4)cc3C2=O)C(=O)N1 (stereo partly drawn) [TR-198, 2-(2,6-dioxopiperidin-3-yl)-5-(3-((4-(6-(6-((R)-2-(3-fluorophenyl)pyrrolidin-1-yl)imidazo[1,2-b]pyridazin-3-yl)pyridin-2-yl)piperazin-1-yl)methyl)azetidin-1-yl)isoindoline-1,3-dione] | – | – | – | 5.5 nM | body weight ([3]; 10-20 mg/kg qd or bid via oral gavage (FIG. 15B)): without inducing substantial weight losses; bioavailability [5]: ~16%; growth of KM12 subcutaneous xenograft tumors ([4]; 10-20 mg/kg qd or bid via oral gavage (FIG. 15A)): significant in vivo anti-tumor activity; also recorded: significantly repressed the growth |
